In one experiment the target is T1, MAO-A (Homo sapiens, UniProt P21397).
T1 construct: gene MAOA
T1 sequence (P21397 1-527): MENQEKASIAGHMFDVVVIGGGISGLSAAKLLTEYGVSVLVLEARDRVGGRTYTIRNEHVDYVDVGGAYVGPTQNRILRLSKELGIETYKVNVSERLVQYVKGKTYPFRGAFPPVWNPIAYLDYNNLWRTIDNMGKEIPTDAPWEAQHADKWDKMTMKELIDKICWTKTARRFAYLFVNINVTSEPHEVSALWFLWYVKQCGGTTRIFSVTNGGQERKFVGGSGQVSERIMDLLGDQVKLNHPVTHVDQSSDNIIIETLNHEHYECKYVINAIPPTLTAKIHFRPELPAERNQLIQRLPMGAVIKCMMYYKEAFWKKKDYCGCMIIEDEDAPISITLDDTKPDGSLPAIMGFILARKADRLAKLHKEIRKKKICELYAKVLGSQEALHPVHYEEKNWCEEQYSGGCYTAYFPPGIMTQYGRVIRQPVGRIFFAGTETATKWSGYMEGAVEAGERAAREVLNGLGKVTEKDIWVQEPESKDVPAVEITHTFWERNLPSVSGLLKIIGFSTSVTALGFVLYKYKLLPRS
Description: MAO-Glo luminescence enzyme activity assay. The experiment is classed as biochemical.

The target in the next experiment is T2, MAO-B (Homo sapiens, UniProt P27338).
T2 construct: gene MAOB
T2 sequence (P27338 2-520): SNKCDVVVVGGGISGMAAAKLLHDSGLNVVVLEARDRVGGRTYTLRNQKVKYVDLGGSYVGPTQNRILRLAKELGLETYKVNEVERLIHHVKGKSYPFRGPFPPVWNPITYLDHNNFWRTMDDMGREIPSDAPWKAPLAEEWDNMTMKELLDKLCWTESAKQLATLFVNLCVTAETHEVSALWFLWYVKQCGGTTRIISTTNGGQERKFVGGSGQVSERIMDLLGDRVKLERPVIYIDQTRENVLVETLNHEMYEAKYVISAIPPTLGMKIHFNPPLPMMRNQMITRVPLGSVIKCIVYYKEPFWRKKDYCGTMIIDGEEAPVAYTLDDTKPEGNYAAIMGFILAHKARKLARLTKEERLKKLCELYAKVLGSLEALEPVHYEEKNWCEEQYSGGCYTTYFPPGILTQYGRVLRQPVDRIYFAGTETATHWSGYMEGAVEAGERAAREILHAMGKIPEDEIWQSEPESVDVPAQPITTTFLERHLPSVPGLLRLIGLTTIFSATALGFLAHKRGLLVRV
Description: MAO-Glo luminescence enzyme activity assay with purchased human MAO-B. In kind it is biochemical.

On to `Cn1c2ccccc2c2ccncc21` [9-methyl-β-carboline], for which the values for the half-maximal inhibitory concentration (IC50) against MAO-A and at MAO-B were 1000 nM and 15.5 µM, respectively.

Source of the values: paper PMC8592951, “9-Methyl-β-carboline inhibits monoamine oxidase activity and stimulates the expression of neurotrophic factors by astrocytes” (Journal of Neural Transmission, 2020).
